Measurements: patent publication US20210255167A1, “COMPOSITIONS AND METHODS FOR ASSESSING TOXICITY USING DYNAMIC BH3 PROFILING” (Dana-Farber Cancer Institute, Inc., priority 2015, published 2021)

Tested on: adult mouse hepatocytes
Text: In some aspects, methods provided herein relate to determining the toxicity of an agent in a sample of cells. In some embodiments, the toxicity of the agent can be determined by determining a value for delta percent priming. As used herein, “delta percent priming” refers to the extent to which an agent shifts a cell closer to the threshold of apoptosis. In some embodiments, normalized values of MOMP (e.g., percent BH3 domain peptide-induced MOMP, or “% MOMP”) are used to determine a value for delta percent priming. In such embodiments, the value for delta percent priming can be calculated using the equation:
Delta Percent Priming=(% MOMPTEST)−(% MOMPCONTROL),
where “% MOMPTEST” represents the value for percent BH3 domain peptide-induced MOMP determined in a test aliquot (cells contacted with the agent); and “% MOMPCONTROL” represents the value for percent BH3 domain peptide-induced MOMP determined in a control aliquot (cells not contacted with the agent).
Next, various drug compounds were tested to assess the extent of drug-induced increased cell death sensitivity in adult mouse hepatocytes. Freshly isolated adult mouse hepatocytes were treated with different drugs for 20 hours, and the loss of cytochrome c induced by a single concentration of the synthetic Bim BH3 peptide was subsequently assessed by immunofluorescence (FIGS. 5A-D). Increase in cell death sensitivity is indicated by loss of cytochrome c, which is quantified as an increase in apoptotic sensitivity (delta priming, FIG. 5E).

Compound	apoptotic sensitivity (delta priming)
COc1cccc2c1C(=O)c1c(O)c3c(c(O)c1C2=O)C[C@@](O)(C(=O)CO)C[C@@H]3O[C@H]1C[C@H](N)[C@H](O)[C@H](C)O1 [doxorubicin]	increase apoptotic sensitivity
C=CCNC1=C2C[C@@H](C)C[C@H](OC)[C@H](O)[C@@H](C)/C=C(\C)[C@H](OC(N)=O)[C@@H](OC)/C=C\C=C(/C)C(=O)NC(=CC1=O)C2=O [tanespimycin]	increase apoptotic sensitivity
CC1(C)CCC(c2ccc(Cl)cc2)=C(CN2CCN(c3ccc(C(=O)NS(=O)(=O)c4ccc(N[C@H](CCN5CCOCC5)CSc5ccccc5)c(S(=O)(=O)C(F)(F)F)c4)cc3)CC2)C1 [Navitoclax]	increase apoptotic sensitivity
